IC50 data for 19 compounds are collected here from patent publication US20260258035A1, “FIVE-MEMBERED AND SIX-MEMBERED NITROGEN-CONTAINING COMPOUND, AND INTERMEDIATE, PREPARATION METHOD AND USE THEREOF” (HANGZHOU SYNRX THERAPEUTICS BIOMEDICAL TECHNOLOGY CO., LTD., priority 2022, published 2026).

The subject of assay [1] is Human breast squamous carcinoma cells HCC1806. Kind of assay: Cell function assay (In-Cell Western, PAR/pADPr after MMS). It counts as cell-based. As for the experimental part: 2. Cell Function Assay (In-Cell Western)
• 1) Human breast squamous carcinoma cells HCC1806 (ATCC) were seeded to the 384-well plate (Corning, #3764) at 20,000 cells/well, incubated for 24 h in a CO2 (5%) incubator at 37° C. to allow for complete adherence of the cells; • 2) 120 nL compounds or DMSO were added to the 384-well plate by Echo 550 (LABCYTE, #550) (final concentrations of compounds: 30000 nM, 10000 nM, 3000 nM, 1000 nM, 300 nM, 100 nM, 30 nM, 10 nM, 3 nM, 1 nM, 0 nM), and then the cells were incubated for 1 h in a CO2 (5%) incubator at 37° C.; • 3) 40 nL MMS (methyl mesylate, Sigma, #129925)(final concentration: 0.5 mM) was added to the plate by Echo 550, and the cells were treated for 1 h in a CO2 (5%) incubator at 37° C.

For the next assay, the target named is PARG (Homo sapiens, UniProt Q86W56). Kind of assay: Biochemical assay (PARG, TFMU-ADPr substrate).
Chain of PARG (Q86W56 whole entry): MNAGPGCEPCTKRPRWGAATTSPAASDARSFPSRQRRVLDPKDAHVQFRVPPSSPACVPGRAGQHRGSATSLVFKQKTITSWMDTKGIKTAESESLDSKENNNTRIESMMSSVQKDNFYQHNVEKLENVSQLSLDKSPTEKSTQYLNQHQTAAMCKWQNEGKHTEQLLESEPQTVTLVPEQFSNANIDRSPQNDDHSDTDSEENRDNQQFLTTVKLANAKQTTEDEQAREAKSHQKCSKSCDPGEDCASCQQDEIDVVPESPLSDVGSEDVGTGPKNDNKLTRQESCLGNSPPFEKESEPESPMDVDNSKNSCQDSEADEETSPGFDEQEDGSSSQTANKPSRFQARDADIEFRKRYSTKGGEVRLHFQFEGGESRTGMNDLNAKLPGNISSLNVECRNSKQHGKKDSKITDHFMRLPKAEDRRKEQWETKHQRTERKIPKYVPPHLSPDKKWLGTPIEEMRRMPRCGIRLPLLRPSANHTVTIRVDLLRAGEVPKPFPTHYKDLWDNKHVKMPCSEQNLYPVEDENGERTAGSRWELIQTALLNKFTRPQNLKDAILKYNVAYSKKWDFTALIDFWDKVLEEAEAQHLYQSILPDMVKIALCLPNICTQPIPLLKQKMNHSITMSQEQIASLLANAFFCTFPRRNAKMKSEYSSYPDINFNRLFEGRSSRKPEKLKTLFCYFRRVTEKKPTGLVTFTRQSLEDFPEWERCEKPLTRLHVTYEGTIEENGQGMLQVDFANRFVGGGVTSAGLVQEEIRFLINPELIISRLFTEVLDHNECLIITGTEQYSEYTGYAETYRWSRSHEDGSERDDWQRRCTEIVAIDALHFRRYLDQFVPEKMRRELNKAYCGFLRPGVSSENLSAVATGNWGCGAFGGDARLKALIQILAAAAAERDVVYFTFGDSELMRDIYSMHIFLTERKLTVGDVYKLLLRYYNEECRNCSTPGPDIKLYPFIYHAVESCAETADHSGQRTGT
In a further assay the test system is HCC1806. Kind of assay: Cell viability assay (CellTiter-Glo). It counts as cell-based, Human. Particulars: Homo sapiens, HCC1806, 168 h, HCC1806, 7 days, CellTiter-Glo; read-out: IC50 (nM) in cell viability assay.
[2] abbreviates: HCC1806, In-Cell Western, MMS treatment, read-out: IC50 (nM) in cell function assay.
The mark [3] stands for this setting: HCC1806, compound 1 h then 0.5 mM MMS 1 h, PAR/pADPr antibody, In-Cell Western, read-out: IC50 (nM) in cell function assay.
Setting [4] is: 4 nM PARG, 66.2 uM TFMU-ADPr, 3 min at room temperature.

The structures appear in SMILES notation. Read-outs that look alike come from different tables or passages of the source. Where only a bound is given, the exact number is not on record here.

In the case of `C[C@@H]1CN(c2cc(S(=O)(=O)NC3(CF)CC3)cn3c(-c4nnc(C(F)F)s4)ncc23)CCN1C(=O)C1(C)CC1` [Example 63, (R)-3-(5-(difluoromethyl)-1,3,4-thiadiazol-2-yl)-N-(1-(fluoromethyl)cyclopropyl)-8-(3-methyl-4-(1-methylcyclopropane-1-carbonyl)piperazin-1-yl)imidazo[1,5-a]pyridine-6-sulfonamide], the IC50 in assay [1] (setting [2]) was 1.36 nM; in assay [1] (setting [3]) it was below 100 nM; against PARG (setting [4]), below 100 nM; against PARG (PARG, TFMU-ADPr substrate), 2.12 nM.
In the case of `C[C@@H]1CN(c2cc(S(=O)(=O)NC3(C#N)CC3)cn3c(-c4nnc(C(F)F)s4)ncc23)CCN1C(=O)C1(C)CC1` [Example 62, (R)-N-(1-cyanocyclopropyl)-3-(5-(difluoromethyl)-1,3,4-thiadiazol-2-yl)-8-(3-methyl-4-(1-methylcyclopropane-1-carbonyl)piperazin-1-yl)imidazo[1,5-a]pyridine-6-sulfonamide], the IC50 is 3.52 nM in assay [1] (setting [2]); below 100 nM in assay [1] (setting [3]); below 100 nM at PARG (setting [4]); 3.75 nM against PARG (PARG, TFMU-ADPr substrate).
For the compound `N#CC1(NS(=O)(=O)c2cc(N3CCOCC3)c3cnc(-c4nnc(C(F)F)s4)n3c2)CC1` [Example 67, N-(1-cyanocyclopropyl)-3-(5-(difluoromethyl)-1,3,4-thiadiazol-2-yl)-8-morpholinoimidazo[1,5-a]pyridine-6-sulfonamide], the IC50 is 40.1 nM in assay [1] (setting [2]); below 100 nM in assay [1] (setting [3]); below 100 nM on PARG (setting [4]); 8.83 nM against PARG (PARG, TFMU-ADPr substrate).
Take `CC(C)C(=O)N1CCN(c2cc(S(=O)(=O)NC3(CF)CC3)cn3c(-c4nnc(C(F)F)s4)ncc23)CC1` [Example 31, 3-(5-(difluoromethyl)-1,3,4-thiadiazol-2-yl)-N-(1-(fluoromethyl)cyclopropyl)-8-(4-isobutyrylpiperazin-1-yl)imidazo[1,5-a]pyridine-6-sulfonamide]: the IC50 in assay [1] (setting [2]) is 4.7 nM; in assay [1] (setting [3]) it was below 100 nM; on PARG (setting [4]), below 100 nM; on PARG (PARG, TFMU-ADPr substrate) it was 0.84 nM.
As for `CC(C)C(=O)N1CCN(c2cc(S(=O)(=O)NC3(C#N)CC3)cc3c(-c4nnc(C(F)F)s4)cnn23)CC1` [Example 27, N-(1-cyanocyclopropyl)-3-(5-(difluoromethyl)-1,3,4-thiadiazol-2-yl)-7-(4-isobutyrylpiperazin-1-yl)pyrazolo[1,5-a]pyridine-5-sulfonamide], the IC50 is 100 to 500 nM in assay [1] (HCC1806, 1 h, read-out: IC50 (nM) in cell function assay); 76.3 nM in assay [1] (HCC1806, read-out: IC50 (nM) in cell function assay); below 100 nM at PARG (setting [4]); 4.98 nM on PARG (PARG, TFMU-ADPr substrate).
As for `C#CC1(NS(=O)(=O)c2cc(N3CCN(C(=O)C(C)C)CC3)c3nnc(-c4nnc(C(F)F)s4)n3c2)COC1` [Example 101, 3-(5-(difluoromethyl)-1,3,4-thiadiazol-2-yl)-N-(3-ethynyloxetan-3-yl)-8-(4-isobutyrylpiperazin-1-yl)-[1,2,4]triazolo[4,3-a]pyridine-6-sulfonamide], the IC50 in assay [1] (setting [2]) was 1540 nM; in assay [1] (setting [3]), above 1000 nM; against PARG (setting [4]), below 100 nM; at PARG (PARG, TFMU-ADPr substrate), 8.15 nM.
Taken in the same sequence, the figures for `N#CC1(NS(=O)(=O)c2cc(N3CCC(F)(F)CC3)c3cnc(-c4nnc(C(F)F)s4)n3c2)CC1` [Example 40, N-(1-cyanocyclopropyl)-3-(5-(difluoromethyl)-1,3,4-thiadiazol-2-yl)-8-(4,4-difluoropiperidin-1-yl)imidazo[1,5-a]pyridine-6-sulfonamide] were 309 nM, 100 to 500 nM, below 100 nM and 8.37 nM.
Taken in the same sequence, the figures for `N#CC1(NS(=O)(=O)c2ccc3c(C4CCC5(CNC5)C4)nc(-c4nnc(C(F)F)s4)n3c2)CC1` (stereo not shown) [Example 26, N-(1-cyanocyclopropyl)-3-(5-(difluoromethyl)-1,3,4-thiadiazol-2-yl)-1-(2-azaspiro[3.4]octan-6-yl)imidazo[1,5-a]pyridine-6-sulfonamide] were 4690 nM, above 1000 nM, below 100 nM and 5.37 nM.
In the same order, the values of `CC(C)C(=O)N1CCN(c2cc(S(=O)(=O)NC3(CF)CC3)cn3c(-c4nnc(C(F)F)s4)cnc23)CC1` [Example 14, 3-(5-(difluoromethyl)-1,3,4-thiadiazol-2-yl)-N-(1-(fluoromethyl)cyclopropyl)-8-(4-isobutyrylpiperazin-1-yl)imidazo[1,2-a]pyridine-6-sulfonamide] are 2.01 nM, below 100 nM, below 100 nM and 0.76 nM.
Take `N#CC1(NS(=O)(=O)c2cc(N3CCC(CO)CC3)c3cnc(-c4nnc(C(F)F)s4)n3c2)CC1` [Example 66, N-(1-cyanocyclopropyl)-3-(5-(difluoromethyl)-1,3,4-thiadiazol-2-yl)-8-(4-(hydroxymethyl)piperidin-1-yl)imidazo[1,5-a]pyridine-6-sulfonamide]: the IC50 in assay [1] (setting [2]) is 18.2 nM; in assay [1] (setting [3]) it was below 100 nM; against PARG (setting [4]), below 100 nM; at PARG (PARG, TFMU-ADPr substrate) it was 2.89 nM.
With `CN(C)CCC(=O)N1CCN(c2cc(S(=O)(=O)NC3(C#N)CC3)cn3c(-c4nnc(C(F)(F)F)s4)ncc23)CC1` [Example 249, N-(1-cyanocyclopropyl)-8-(4-(3-(dimethylamino)propanoyl)piperazin-1-yl)-3-(5-(trifluoromethyl)-1,3,4-thiadiazol-2-yl)imidazo[1,5-a]pyridine-6-sulfonamide], the IC50 with HCC1806 was found to be 7320 nM; on PARG (PARG, TFMU-ADPr substrate), 115 nM.
Taken in the same sequence, the figures for `CC(C)C(=O)NC1CCN(c2cc(S(=O)(=O)NC3(C#N)CC3)cn3c(-c4nnc(C(F)(F)F)s4)ncc23)CC1` [Example 268, N-(1-(6-(N-(1-cyanocyclopropyl)sulfamoyl)-3-(5-(trifluoromethyl)-1,3,4-thiadiazol-2-yl)imidazo[1,5-a]pyridin-8-yl)piperidin-4-yl)isobutyramide] were 2210 nM and 100 nM.
In the same order, the values of `CC(C)C(=O)N1CCN(c2cc(S(=O)(=O)NC3(C#N)CC3)cn3c(-c4nnc(C(F)F)s4)cnc23)C[C@H]1C` [Example 206, (R)-N-(1-cyanocyclopropyl)-3-(5-(difluoromethyl)-1,3,4-thiadiazol-2-yl)-8-(4-isobutyryl-3-methylpiperazin-1-yl)imidazo[1,2-a]pyridine-6-sulfonamide] are 1180 nM and 21.9 nM.
In the case of `COC[C@H]1CN(c2cc(S(=O)(=O)NC3(C)COC3)cn3c(-c4nnc(C(F)F)s4)ncc23)C[C@H](C)N1` [Example 404, 3-(5-(difluoromethyl)-1,3,4-thiadiazol-2-yl)-8-((3R,5S)-3-(methoxymethyl)-5-methylpiperazin-1-yl)-N-(3-methyloxetan-3-yl)imidazo[1,5-a]pyridine-6-sulfonamide], the IC50 in the assay on HCC1806 was 27 nM; against PARG (PARG, TFMU-ADPr substrate), 1.09 nM.
Taken in the same sequence, the figures for `C[C@H]1CN(c2cc(S(=O)(=O)NC3(C)COC3)cn3c(-c4nnc(C(F)F)s4)ncc23)C[C@H](CO)O1` [Example 396, 3-(5-(difluoromethyl)-1,3,4-thiadiazol-2-yl)-8-((2R,6S)-2-(hydroxymethyl)-6-methylmorpholino)-N-(3-methyloxetan-3-yl)imidazo[1,5-a]pyridine-6-sulfonamide] were 36.8 nM and 2.08 nM.
Taken in the same sequence, the figures for `[2H]C([2H])([2H])OC1(C(=O)N2CCN(c3cc(S(=O)(=O)NC4(C)COC4)cn4c(-c5nnc(C(F)(F)F)s5)ncc34)CC2)CC1` [Example 183, 8-(4-(1-(methoxy-d3)cyclopropane-1-carbonyl)piperazin-1-yl)-N-(3-methyloxetan-3-yl)-3-(5-(trifluoromethyl)-1,3,4-thiadiazol-2-yl)imidazo[1,5-a]pyridine-6-sulfonamide] were 26.8 nM and 0.91 nM.
On to `COC1(C(=O)N2CCN(c3cc(S(=O)(=O)NC4(C)CC4)cn4c(-c5nnc(C(F)F)s5)ncc34)CC2)CC1` [Example 196, 3-(5-(difluoromethyl)-1,3,4-thiadiazol-2-yl)-8-(4-(1-methoxycyclopropane-1-carbonyl)piperazin-1-yl)-N-(1-methylcyclopropyl)imidazo[1,5-a]pyridine-6-sulfonamide], for which the IC50 is 6.34 nM in the assay with HCC1806 and below 0.1 nM against PARG (PARG, TFMU-ADPr substrate).
Taken in the same sequence, the figures for `N#CC1(NS(=O)(=O)c2cc(N3CCN(C(=O)C(O)C(F)(F)F)CC3)c3cnc(-c4nnc(C(F)F)s4)n3c2)CC1` (stereo not shown) [Example 261, N-(1-cyanocyclopropyl)-3-(5-(difluoromethyl)-1,3,4-thiadiazol-2-yl)-8-(4-(3,3,3-trifluoro-2-hydroxypropanoyl)piperazin-1-yl)imidazo[1,5-a]pyridine-6-sulfonamide] were 370 nM and 100 nM.
On to `N#CC1(NS(=O)(=O)c2cc(N3CCN(C(=O)CO)CC3)c3cnc(-c4nnc(C(F)(F)F)s4)n3c2)CC1` [Example 276, N-(1-cyanocyclopropyl)-8-(4-(2-hydroxyacetyl)piperazin-1-yl)-3-(5-(trifluoromethyl)-1,3,4-thiadiazol-2-yl)imidazo[1,5-a]pyridine-6-sulfonamide], for which the IC50 in the assay with HCC1806 was 1750 nM; against PARG (PARG, TFMU-ADPr substrate), 45.7 nM.
